What was measured:
normal rats = assay: Urine protein excretion in normal rats; assay type: in vivo, Sprague Dawley rats
From the text: Data were expressed as mean±SEM. […] The accepted level of significance was p<0.05.

⅚ nephrectomized rats = assay: Urine protein excretion in five-sixths nephrectomized (ablation proteinuric) rats; assay type: in vivo, Sprague Dawley rats; conditions: for 24-hour urinary excretion of protein, Weeks 9-16: 762 nmoles/kg/day orally for 8 weeks (weeks 9-16 post nephrectomy); for 24-hour urinary excretion of protein, Weeks 9-16 / 24-hour urinary excretion of protein, Weeks 1-8: mean ± SEM; for 24-hour urinary excretion of protein, Weeks 1-8: treatment group in weeks 1-8 post nephrectomy, before treatment started (baseline)
Description: nephrectomy was carried out as described by Morrison (11). Briefly, each animal was anaesthetized with 7% w/v chloral hydrate (0.4 g/kg, i.p.). An incision was made in the ventral abdominal wall to access the kidneys. Right nephrectomy was performed and the cranial and caudal third of the left kidney were cut off. Tissue adhesive (Histoccryl, B. Braun) was used to seal the cut ends of the left kidney and prevent bleeding. In this way 5⁄6 of the renal parenchyma was removed. This model results in focal and segmental glomerulosclerosis, resembling renal lesions in humans like oligomeganephronia, membranous nephropathy, minimal change nephritis, proliferative glomerulonephritis, analgesic nephropathy, diabetes mellitus, unilateral nephrectomy, cortical necrosis, and unilateral renal agenesis (9). Following the operation, each animal was placed in a metabolic cage for 24 hours once a week for a duration of 8 weeks. The 24-hour urine output and the concentration of protein in the urine were measured. After the 8th week, the animals were randomly divided into two groups (8 animals per group). Animals in one of the group (the treatment group) were orally administered 762 nmoles/kg/day of des-Asp-angiotensin I dissolved in 0.5 ml of saline via a 1-ml syringe with a blunted needle for a period of 8 weeks. The dose of 762 nmoles/kg/day was calculated based on the maximum effective oral anti-cardiac hypertrophic dose (250 nmole per rat of average weight of 328 g) in the original parent patent. Animals in the other group (the control group) were similarly administered with 0.5 ml of saline. Weekly measurement of 24-hour urine output and the concentration of protein in the urine in these animals were carried out for another 8 weeks. The protocol was designed based on our preliminary observation that urinary excretion of protein in the 5⁄6 nephrectomized rats commenced to increase above the normal value in 7th to 8th week post nephrectomy. A repeat of the experiment with 12 nephrectomized rats per group was carried out. Data were expressed as mean±SEM. […] The accepted level of significance was p<0.05.

Substance: des-Aspartate angiotensin I [des-Asp-angiotensin I]
- 24-hour urinary excretion of protein, Weeks 1-8 (normal rats; Table 4, normal rats, treatment group (762 nmoles/kg/day), 12 rats, mean ± SEM, saline control 18.7 ± 1.8): 16.1 ± 1.7 mg
- 24-hour urinary excretion of protein, Weeks 9-16 (normal rats; Table 4, normal rats, treatment group (762 nmoles/kg/day), 12 rats, mean ± SEM, saline control 19.9 ± 2.2): 17.8 ± 1.1 mg
- Effect on urinary excretion of protein in normal rats (normal rats; normal rats, oral dose of 762 nmoles/kg/day): no effect
- 24-hour urinary excretion of protein, Weeks 9-16 (⅚ nephrectomized rats; Table 2, first experiment, 8 rats, saline control 37.2 ± 2.3, p = 0.024): *28.7 ± 2.5 mg
- 24-hour urinary excretion of protein, Weeks 1-8 (⅚ nephrectomized rats; Table 2, first experiment, 8 rats): 16.4 ± 1.6 mg
- 24-hour urinary excretion of protein, Weeks 9-16 (⅚ nephrectomized rats; Table 3, repeat experiment, 12 rats, saline control 51.7 ± 4.7, p = 0.048): *39.6 ± 3.3 mg
- 24-hour urinary excretion of protein, Weeks 1-8 (⅚ nephrectomized rats; Table 3, repeat experiment, 12 rats): 19.9 ± 1.5 mg
- Anti-proteinuric action (progressive development of proteinuria) (⅚ nephrectomized rats; ablation nephropathic rats, oral dose of 762 nmoles/kg/day): effective agent in attenuating the progressive development of proteinuria

From patent US7553928B2, “Use of des-Aspartate-angiotensin I as an agent for the treatment and prevention of glomerulosclerosis and renal failure” (priority 2000, dated 2009)
